Legend:
NA (H1N1,09) = NA (H1N1,09) (Influenza A virus, UniProt C3W5S3); assay: biochemical; details: 200 μM of each compound; n = 3, means ± standard deviation; read-out: Inhibition rate (%) NA(H1N1,09)
NA (H5N1) = NA (H5N1) (Influenza A virus, UniProt K0C216); assay: biochemical; details: read-out: Inhibition rate (%) NA (H5N1)
NA (H7N9) = type: biochemical; details: 200 µM
in vitro = details: human

Structure (SMILES) | inhibition at 200 µM (NA (H1N1,09)) [%] | inhibition at 200 µM (NA (H5N1)) [%] | Inhibition rate (%) NA(H7N9) (NA (H7N9)) [%] | CC50 (in vitro) [µM]
C[C@H](CC[C@H](O)[C@](C)(O)CO)[C@H]1CC[C@@]2(C)C3=CC[C@H]4C(C)(C)C(=O)CC[C@]4(C)C3=CC[C@]12C [Compound 29, Ganodermanontriol] | 35.3 ± 5.2 | 60.5 ± 6.8 | 10.3 ± 3.5 | > 200
C[C@H](CCC=C(CO)CO)[C@H]1CC[C@@]2(C)C3=CC[C@H]4C(C)(C)C(=O)CC[C@]4(C)C3=CC[C@]12C [Compound 27, Ganoderiol F] | 52.9 ± 2 | 33.6 ± 12.1 | 29.5 ± 4.3 | > 200
C/C(=C\[C@@H](O)C[C@@H](C)[C@H]1CC(=O)[C@@]2(C)C3=C(C(=O)C[C@]12C)[C@@]1(C)CCC(=O)C(C)(C)[C@@H]1C[C@@H]3O)C(=O)O [Compound 23, Ganoderic acid LM2] | 40.9 ± 6.2 | 67.1 ± 5.2 | 12.7 ± 9.6 | > 200
C/C(=C\C(=O)CC(C)C(=O)O)[C@H]1CC(=O)[C@@]2(C)C3=C(C(=O)C[C@]12C)[C@@]1(C)CC[C@H](O)C(C)(C)[C@@H]1CC3=O (some centres unmarked) [Compound 12, Ganoderenic acid H] | 58 ± 3 | 77.7 ± 3.9 | 38.6 ± 6.2 | > 200
CC(=O)O[C@@H]1C(=O)C2=C([C@@H](O)C[C@H]3C(C)(C)[C@@H](O)CC[C@]23C)[C@]2(C)C(=O)C[C@H]([C@H](C)CC(=O)CC(C)C(=O)O)[C@@]12C (some centres unmarked) [Compound 11, Ganoderic acid K] | 28.8 ± 2 | 57.7 ± 10.9 | 28.5 ± 1.9 | > 200
C/C(C=O)=C\CC[C@@H](C)[C@H]1CC[C@@]2(C)C3=C(CC[C@]12C)[C@@]1(C)CCC(=O)C(C)(C)[C@@H]1CC3=O [Compound 31, Lucialdehyde B] | 51.4 ± 2.5 | 86.7 ± 0.8 | 30.4 ± 3.5 | 7.1 ± 0.3
C/C(=C\C(=O)CC(C)C(=O)O)[C@H]1C[C@H](O)[C@@]2(C)C3=C(C(=O)C[C@]12C)[C@@]1(C)CCC(=O)C(C)(C)[C@@H]1C[C@@H]3O (some centres unmarked) [Compound 8, Ganoderenic acid A] | 35.3 ± 3.7 | 35.9 ± 7.7 | 23.3 ± 3.1 | > 200
C/C(=C\C(=O)CC(C)C(=O)O)[C@H]1CC(=O)[C@@]2(C)C3=C(C(=O)C[C@]12C)[C@@]1(C)CCC(=O)C(C)(C)[C@@H]1CC3=O (some centres unmarked) [Compound 15, Ganoderenic acid F] | 53.1 ± 1.6 | 62.8 ± 4 | 34.2 ± 4.7 | 111 ± 17.9
C[C@H](CC(=O)C[C@@H](C)[C@H]1C[C@H](O)[C@@]2(C)C3=C(C(=O)C[C@]12C)[C@@]1(C)CC[C@H](O)C(C)(C)[C@@H]1C[C@@H]3O)C(=O)O [Compound 9, Ganoderic acid C2] | 32.4 ± 4.5 | 60.8 ± 4.3 | 27.5 ± 2.3 | > 200
C[C@H](CC(=O)C[C@@H](C)[C@H]1C[C@H](O)[C@@]2(C)C3=C(C(=O)C[C@]12C)[C@@]1(C)CCC(=O)C(C)(C)[C@@H]1C[C@@H]3O)C(=O)O [Compound 7, Ganoderic acid A] | 5 ± 5.4 | 31.4 ± 7.3 | 6.3 ± 2.2 | > 200
CC(=O)O[C@@H]1C(=O)C2=C(C(=O)C[C@H]3C(C)(C)C(=O)CC[C@]23C)[C@]2(C)C(=O)C[C@H]([C@H](C)CC(=O)CC(C)C(=O)O)[C@@]12C (some centres unmarked) [Compound 24, Ganoderic acid F] | 12.9 ± 11.4 | 48.6 ± 7.4 | 14.8 ± 2.6 | > 200
C[C@H](CC[C@H](O)C(C)(C)O)[C@H]1CC[C@@]2(C)C3=CC[C@H]4C(C)(C)C(=O)CC[C@]4(C)C3=CC[C@]12C [Compound 28, Ganodermanondiol] | – | 87.9 ± 1.8 | 24.3 ± 1.7 | 64.9 ± 10

Reference: paper PMC4549708, “Inhibition of neuraminidase by Ganoderma triterpenoids and implications for neuraminidase inhibitor design” (Scientific Reports, 2015)
